Reference: article PMC10246881 (2023)

What was measured:
[1] = test system: dsOligo 1 (CGCGAATTCGCG) (DNA, duplex) CGCGAATTCGCG; assay: intrinsic fluorescence titration, tight-binding linear fit; details: 100 mM NaCl; 50 mM Tris-HCl, 0.1 mM EDTA, pH 7.4; oligo titrated into fixed ridinilazole
[2] = test system: dsOligo 2 (CGCAAATTTGCG) (DNA, duplex) CGCAAATTTGCG; assay: as above; details: 100 mM NaCl; 50 mM Tris-HCl, 0.1 mM EDTA, pH 7.4; oligo titrated into fixed ridinilazole
[3] = test system: (poly[dG-dC])2 (DNA, polymer) GC; assay: intrinsic fluorescence titration; details: 100 mM NaCl; 50 mM Tris-HCl, 0.1 mM EDTA, pH 7.4; 2 μM ridinilazole, polymer titrated
[4] = test system: (poly[dA-dT])2 (DNA, polymer) AT; assay: intrinsic fluorescence titration; details: 100 mM NaCl; 50 mM Tris-HCl, 0.1 mM EDTA, pH 7.4; 2 μM ridinilazole, polymer titrated
[5] = test system: dsOligo 1 (CGCGAATTCGCG) (DNA, duplex) CGCGAATTCGCG; assay: X-ray crystallography (2.2 Å); details: minor groove at AATT; mixed 1:1, 4% DMSO; crystals at 14 °C
[6] = test system: poly(dA)·poly(dT) (DNA, polymer) A/T; assay: intrinsic fluorescence titration; details: 100 mM NaCl; 50 mM Tris-HCl, 0.1 mM EDTA, pH 7.4; 2 μM ridinilazole, polymer titrated

Kd [1]: 21.6 nM | Kd [2]: 21.3 nM | binding [3]: no | binding [4]: yes | binding [5]: yes | binding [6]: yes
SMILES: c1cc(-c2nc3cc(-c4ccc5nc(-c6ccncc6)[nH]c5c4)ccc3[nH]2)ccn1
